Experimental data reported in the NIST ThermoML archive (doi:10.1021/je8006474).
± gives the expanded uncertainty stated by the source. Blank lines part the entries; values can stand above or below the compound they belong to.

Conditions: 101.33 kPa, Liquid, Pycnometric method

SMILES: Fc1ccc(F)c(F)c1 [1,2,4-trifluorobenzene]
mass density (296.6 K): 1280 ± 36 kg/m3
mass density (330.7 K): 1247 ± 36 kg/m3

mass density (296.2 K): 1156 ± 36 kg/m3
mass density (331.1 K): 1117 ± 36 kg/m3
SMILES: Fc1ccccc1F [1,2-difluorobenzene]

SMILES: Fc1cc(F)cc(F)c1 [1,3,5-trifluorobenzene]
mass density (297.2 K): 1268 ± 36 kg/m3
mass density (324.9 K): 1225 ± 36 kg/m3

SMILES: Fc1cccc(F)c1 [1,3-difluorobenzene]
mass density (296.2 K): 1139 ± 36 kg/m3
mass density (330.6 K): 1094 ± 36 kg/m3

SMILES: Fc1ccc(F)cc1 [1,4-difluorobenzene]
mass density (296.1 K): 1146 ± 36 kg/m3
mass density (327.2 K): 1110 ± 36 kg/m3

SMILES: Fc1ccccc1 [fluorobenzene]
mass density (296.2 K): 1022 ± 16 kg/m3
mass density (330.1 K): 985 ± 16 kg/m3

SMILES: Fc1cc(F)c(F)c(F)c1F [pentafluorobenzene]
mass density (296.9 K): 1511 ± 20 kg/m3
mass density (327.6 K): 1453 ± 20 kg/m3
